# According to ChEMBL document CHEMBL1123029, “Synthesis and biological evaluation of phosphonamidate peptide inhibitors of enkephalinase and angiotensin-converting enzyme” (J Med Chem, 1985):
# pKi: −log10 of the molar value.
# Target: T1, Neprilysin (Rattus norvegicus, UniProt P07861)
# T1 sequence (P07861 whole entry): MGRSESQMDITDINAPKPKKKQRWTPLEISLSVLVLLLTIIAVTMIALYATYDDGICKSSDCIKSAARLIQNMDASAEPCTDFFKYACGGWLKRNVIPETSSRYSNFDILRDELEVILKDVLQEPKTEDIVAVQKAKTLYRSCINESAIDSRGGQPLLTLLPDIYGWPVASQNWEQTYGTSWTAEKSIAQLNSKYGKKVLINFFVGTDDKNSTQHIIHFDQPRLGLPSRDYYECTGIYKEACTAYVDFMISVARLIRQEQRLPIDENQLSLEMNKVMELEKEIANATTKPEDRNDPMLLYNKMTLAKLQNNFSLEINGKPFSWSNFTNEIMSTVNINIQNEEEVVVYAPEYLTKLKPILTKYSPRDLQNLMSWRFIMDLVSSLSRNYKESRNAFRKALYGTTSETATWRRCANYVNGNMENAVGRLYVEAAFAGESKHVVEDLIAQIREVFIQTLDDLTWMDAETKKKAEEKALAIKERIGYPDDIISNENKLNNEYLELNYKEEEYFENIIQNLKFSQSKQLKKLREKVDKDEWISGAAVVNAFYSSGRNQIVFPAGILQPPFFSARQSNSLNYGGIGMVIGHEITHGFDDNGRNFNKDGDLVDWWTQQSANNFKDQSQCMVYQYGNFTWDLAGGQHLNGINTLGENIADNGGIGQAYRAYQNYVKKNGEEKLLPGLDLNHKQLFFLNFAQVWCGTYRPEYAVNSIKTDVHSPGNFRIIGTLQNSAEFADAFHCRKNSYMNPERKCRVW
# Assay: Binding affinity towards enkephalinase (metalloendopeptidase, E.C.3.4.24.11) of rat kidney
row,Compound,pKi
1,CCOP(=O)(CNC(C)=O)NC(Cc1ccccc1)NC(CCSC)C(=O)O (configuration not stated),3.80
2,CC(C)CC(NC(Cc1ccccc1)NP(=O)(O)CNC(=O)c1ccccc1)C(=O)O (configuration not stated),4.97
3,CC(C)CC(NC(Cc1ccccc1)NP(=O)(O)CNC(=O)Cc1ccccc1)C(=O)O (configuration not stated),4.10
4,CC(C)CC(NC(Cc1ccccc1)NP(=O)(O)CNC(=O)CCc1ccccc1)C(=O)O (configuration not stated),2.92
5,CSCCC(NC(Cc1ccccc1)NP(=O)(O)CNC(C)=O)C(=O)O (configuration not stated),6.85
6,CC(=O)NCP(=O)(O)NC(Cc1ccccc1)NC(CC(C)C)C(=O)O (configuration not stated),6.07
7,CC(C)C[C@H](NP(=O)(O)O[C@@H]1O[C@@H](C)[C@H](O)[C@@H](O)[C@H]1O)C(=O)N[C@@H](Cc1c[nH]c2ccccc12)C(=O)O [PHOSPHORAMIDON],8.40
